Measured values taken from article PMC8145430 (Chemical Science, 2019).

System: A549 cells
Test: Confocal imaging of intracellular localization of fluorescein-labeled peptides
Format: cell-based, human
Details: 1 μM, 10 minutes, 37°C, confocal images

H-GLFDIIKKIAESF-K(FAM)K5SKTKC(Far)-OMe [FAM-Memrasin]
tethering on the PM: displays a clearer tethering on the PM
